Laboratory results taken from the supplement of paper PMC10307832.

Columns and labels:
Test in all cases: relative viability (nuclei count vs DMSO), 5 days (fraction); higher = more cells survive
NCI-H3122 = test system: NCI-H3122
Outline: (§1)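 Lung cancer cell lines in 1536-well plates got either a single drug or a fixed anchor-drug dose together with five library-drug doses (not always all listed) in √10 steps, by pin tool, on the day after seeding. Nuclei were counted after 5 days, and relative viability is the treated-to-vehicle ratio of nuclei counts. Values are medians of duplicate plates.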

HCC-44 = test system: HCC-44
Outline: as §1

NCI-H520 = test system: NCI-H520
Outline: as §1

NCI-H2347 = test system: NCI-H2347
Outline: as §1

PC-14 = test system: PC-14
Outline: as §1

NCI-H2085 = test system: NCI-H2085
Outline: as §1

NCI-H1734 = test system: NCI-H1734
Outline: as §1

NCI-H1993 = test system: NCI-H1993
Outline: as §1

201T = test system: 201T
Outline: as §1

EKVX = test system: EKVX
Outline: as §1

NCI-H2170 = test system: NCI-H2170
Outline: as §1

COR-L23 = test system: COR-L23
Outline: as §1

NCI-H1650 = test system: NCI-H1650
Outline: as §1

NCI-H2405 = test system: NCI-H2405
Outline: as §1

NCI-H1793 = test system: NCI-H1793
Outline: as §1

RERF-LC-KJ = test system: RERF-LC-KJ
Outline: as §1

LOU-NH91 = test system: LOU-NH91
Outline: as §1

EPLC-272H = test system: EPLC-272H
Outline: as §1

NCI-H2023 = test system: NCI-H2023
Outline: as §1

NCI-H441 = test system: NCI-H441
Outline: as §1

NCI-H647 = test system: NCI-H647
Outline: as §1

SW 900 = test system: SW 900
Outline: as §1

ABC-1 = test system: ABC-1
Outline: as §1

Q: With `C[C@@H]1CN(CC(=O)Nc2ccc3c(c2)Cc2cccc(-c4cc(=O)cc(N5CCOCC5)o4)c2S3)C[C@H](C)O1` + Nc1ncn([C@H]2C[C@H](O)[C@@H](CO)O2)c(=O)n1 [Decitabine] (partner 2 µM) as the compound, how does the relative viability (NCI-H3122; first compound 0.04 µM) read?
A: The relative viability was 0.423.

Q: What about the relative viability (NCI-H3122; first compound 0.1265 µM) of the same compound?
A: Its relative viability is 0.396.

Q: What about the relative viability (NCI-H3122; first compound 0.4 µM) of the same compound?
A: Its relative viability is 0.42.

Q: And the relative viability (NCI-H3122; first compound 4 µM)?
A: Its relative viability is 0.436.

Q: And the relative viability (HCC-44; first compound 0.04 µM)?
A: The relative viability was 0.898.

Q: And the relative viability (HCC-44; first compound 0.1265 µM)?
A: The relative viability was 0.93.

Q: What about the relative viability (HCC-44; first compound 0.4 µM) of the same compound?
A: The relative viability was 0.972.

Q: And the relative viability (HCC-44; first compound 4 µM)?
A: The relative viability was 0.953.

Q: And the relative viability (NCI-H520; first compound 0.04 µM)?
A: The relative viability was 0.613.

Q: And the relative viability (NCI-H520; first compound 0.1265 µM)?
A: The relative viability was 0.484.

Q: What about the relative viability (NCI-H520; first compound 0.4 µM) of the same compound?
A: Its relative viability is 0.449.

Q: And the relative viability (NCI-H520; first compound 4 µM)?
A: The relative viability was 0.488.

Q: What about the relative viability (NCI-H2347; first compound 0.04 µM) of the same compound?
A: The relative viability was 0.581.

Q: And the relative viability (NCI-H2347; first compound 0.1265 µM)?
A: The relative viability was 0.624.

Q: What about the relative viability (NCI-H2347; first compound 0.4 µM) of the same compound?
A: The relative viability was 0.693.

Q: And the relative viability (NCI-H2347; first compound 4 µM)?
A: Its relative viability is 0.637.

Q: And the relative viability (PC-14; first compound 0.04 µM)?
A: Its relative viability is 0.235.

Q: What about the relative viability (PC-14; first compound 0.1265 µM) of the same compound?
A: The relative viability was 0.253.

Q: And the relative viability (PC-14; first compound 0.4 µM)?
A: The relative viability was 0.192.

Q: What about the relative viability (PC-14; first compound 4 µM) of the same compound?
A: The relative viability was 0.167.

Q: And the relative viability (NCI-H2085; first compound 0.04 µM)?
A: The relative viability was 0.564.

Q: And the relative viability (NCI-H2085; first compound 0.1265 µM)?
A: The relative viability was 0.589.

Q: And the relative viability (NCI-H2085; first compound 0.4 µM)?
A: The relative viability was 0.605.

Q: What about the relative viability (NCI-H2085; first compound 4 µM) of the same compound?
A: Its relative viability is 0.584.

Q: What about the relative viability (NCI-H1734; first compound 0.04 µM) of the same compound?
A: The relative viability was 0.567.

Q: What about the relative viability (NCI-H1734; first compound 0.1265 µM) of the same compound?
A: Its relative viability is 0.507.

Q: And the relative viability (NCI-H1734; first compound 0.4 µM)?
A: Its relative viability is 0.474.

Q: What about the relative viability (NCI-H1734; first compound 4 µM) of the same compound?
A: Its relative viability is 0.574.

Q: What about the relative viability (NCI-H1993; first compound 0.04 µM) of the same compound?
A: Its relative viability is 0.701.

Q: What about the relative viability (NCI-H1993; first compound 0.1265 µM) of the same compound?
A: Its relative viability is 0.55.

Q: And the relative viability (NCI-H1993; first compound 0.4 µM)?
A: The relative viability was 0.566.

Q: And the relative viability (NCI-H1993; first compound 4 µM)?
A: The relative viability was 0.644.

Q: What about the relative viability (201T; first compound 0.04 µM) of the same compound?
A: The relative viability was 0.816.

Q: What about the relative viability (201T; first compound 0.1265 µM) of the same compound?
A: The relative viability was 0.818.

Q: And the relative viability (201T; first compound 0.4 µM)?
A: The relative viability was 0.84.

Q: And the relative viability (201T; first compound 4 µM)?
A: The relative viability was 0.791.

Q: And the relative viability (EKVX; first compound 0.04 µM)?
A: Its relative viability is 0.302.

Q: And the relative viability (EKVX; first compound 0.1265 µM)?
A: The relative viability was 0.368.

Q: What about the relative viability (EKVX; first compound 0.4 µM) of the same compound?
A: The relative viability was 0.303.

Q: And the relative viability (EKVX; first compound 4 µM)?
A: The relative viability was 0.317.

Q: And the relative viability (NCI-H2170; first compound 0.04 µM)?
A: The relative viability was 0.492.

Q: What about the relative viability (NCI-H2170; first compound 0.1265 µM) of the same compound?
A: Its relative viability is 0.459.

Q: And the relative viability (NCI-H2170; first compound 0.4 µM)?
A: Its relative viability is 0.508.

Q: And the relative viability (NCI-H2170; first compound 4 µM)?
A: The relative viability was 0.464.

Q: And the relative viability (COR-L23; first compound 0.04 µM)?
A: Its relative viability is 0.431.

Q: What about the relative viability (COR-L23; first compound 0.1265 µM) of the same compound?
A: Its relative viability is 0.445.

Q: What about the relative viability (COR-L23; first compound 0.4 µM) of the same compound?
A: Its relative viability is 0.569.

Q: And the relative viability (COR-L23; first compound 4 µM)?
A: Its relative viability is 0.612.

Q: And the relative viability (NCI-H1650; first compound 0.04 µM)?
A: The relative viability was 0.492.

Q: And the relative viability (NCI-H1650; first compound 0.1265 µM)?
A: Its relative viability is 0.44.

Q: What about the relative viability (NCI-H1650; first compound 0.4 µM) of the same compound?
A: Its relative viability is 0.488.

Q: What about the relative viability (NCI-H1650; first compound 4 µM) of the same compound?
A: Its relative viability is 0.499.

Q: And the relative viability (NCI-H2405; first compound 0.04 µM)?
A: The relative viability was 0.878.

Q: And the relative viability (NCI-H2405; first compound 0.1265 µM)?
A: Its relative viability is 0.814.

Q: And the relative viability (NCI-H2405; first compound 0.4 µM)?
A: Its relative viability is 0.728.

Q: What about the relative viability (NCI-H2405; first compound 4 µM) of the same compound?
A: Its relative viability is 0.803.

Q: And the relative viability (NCI-H1793; first compound 0.04 µM)?
A: The relative viability was 0.536.

Q: And the relative viability (NCI-H1793; first compound 0.1265 µM)?
A: Its relative viability is 0.552.

Q: And the relative viability (NCI-H1793; first compound 0.4 µM)?
A: The relative viability was 0.503.

Q: And the relative viability (NCI-H1793; first compound 4 µM)?
A: Its relative viability is 0.526.

Q: What about the relative viability (RERF-LC-KJ; first compound 0.04 µM) of the same compound?
A: The relative viability was 0.711.

Q: What about the relative viability (RERF-LC-KJ; first compound 0.1265 µM) of the same compound?
A: The relative viability was 0.61.

Q: What about the relative viability (RERF-LC-KJ; first compound 0.4 µM) of the same compound?
A: Its relative viability is 0.678.

Q: What about the relative viability (RERF-LC-KJ; first compound 4 µM) of the same compound?
A: The relative viability was 0.556.

Q: What about the relative viability (LOU-NH91; first compound 0.04 µM) of the same compound?
A: Its relative viability is 0.857.

Q: What about the relative viability (LOU-NH91; first compound 0.1265 µM) of the same compound?
A: The relative viability was 0.819.

Q: What about the relative viability (LOU-NH91; first compound 0.4 µM) of the same compound?
A: Its relative viability is 0.81.

Q: And the relative viability (LOU-NH91; first compound 4 µM)?
A: Its relative viability is 0.749.

Q: What about the relative viability (EPLC-272H; first compound 0.04 µM) of the same compound?
A: Its relative viability is 0.386.

Q: And the relative viability (EPLC-272H; first compound 0.1265 µM)?
A: Its relative viability is 0.384.

Q: What about the relative viability (EPLC-272H; first compound 0.4 µM) of the same compound?
A: The relative viability was 0.394.

Q: And the relative viability (EPLC-272H; first compound 4 µM)?
A: Its relative viability is 0.364.

Q: What about the relative viability (NCI-H2023; first compound 0.04 µM) of the same compound?
A: Its relative viability is 0.197.

Q: And the relative viability (NCI-H2023; first compound 0.1265 µM)?
A: The relative viability was 0.227.

Q: What about the relative viability (NCI-H2023; first compound 0.4 µM) of the same compound?
A: Its relative viability is 0.225.

Q: And the relative viability (NCI-H2023; first compound 4 µM)?
A: The relative viability was 0.224.

Q: What about the relative viability (NCI-H441; first compound 0.04 µM) of the same compound?
A: The relative viability was 0.249.

Q: What about the relative viability (NCI-H441; first compound 0.1265 µM) of the same compound?
A: Its relative viability is 0.222.

Q: What about the relative viability (NCI-H441; first compound 0.4 µM) of the same compound?
A: Its relative viability is 0.29.

Q: And the relative viability (NCI-H441; first compound 4 µM)?
A: The relative viability was 0.328.

Q: And the relative viability (NCI-H647; first compound 0.04 µM)?
A: The relative viability was 0.442.

Q: What about the relative viability (NCI-H647; first compound 0.1265 µM) of the same compound?
A: The relative viability was 0.376.

Q: What about the relative viability (NCI-H647; first compound 0.4 µM) of the same compound?
A: The relative viability was 0.369.

Q: What about the relative viability (NCI-H647; first compound 4 µM) of the same compound?
A: Its relative viability is 0.346.

Q: And the relative viability (SW 900; first compound 0.04 µM)?
A: The relative viability was 0.453.

Q: What about the relative viability (SW 900; first compound 0.1265 µM) of the same compound?
A: The relative viability was 0.427.

Q: And the relative viability (SW 900; first compound 0.4 µM)?
A: The relative viability was 0.515.

Q: What about the relative viability (SW 900; first compound 4 µM) of the same compound?
A: The relative viability was 0.43.

Q: And the relative viability (ABC-1; first compound 0.04 µM)?
A: Its relative viability is 0.303.

Q: And the relative viability (ABC-1; first compound 0.1265 µM)?
A: The relative viability was 0.897.

Q: And the relative viability (ABC-1; first compound 0.4 µM)?
A: The relative viability was 0.947.

Q: What about the relative viability (ABC-1; first compound 4 µM) of the same compound?
A: The relative viability was 1.48.
